According to patent publication US6121512A, “Cytochrome P-450 constructs and method of producing herbicide-resistant transgenic plants” (North Carolina State University, priority 1997, dated 2000):

Legend:
[1] = target: T1, CYP73A1 (trans-cinnamic acid hydroxylase) (Helianthus tuberosus, UniProt Q04468); conditions: CYP73A1 expressed in yeast, chlortoluron ring-methyl hydroxylation; cited from earlier work
T1 construct: host or cells: yeast
T1 sequence (Q04468 1-505): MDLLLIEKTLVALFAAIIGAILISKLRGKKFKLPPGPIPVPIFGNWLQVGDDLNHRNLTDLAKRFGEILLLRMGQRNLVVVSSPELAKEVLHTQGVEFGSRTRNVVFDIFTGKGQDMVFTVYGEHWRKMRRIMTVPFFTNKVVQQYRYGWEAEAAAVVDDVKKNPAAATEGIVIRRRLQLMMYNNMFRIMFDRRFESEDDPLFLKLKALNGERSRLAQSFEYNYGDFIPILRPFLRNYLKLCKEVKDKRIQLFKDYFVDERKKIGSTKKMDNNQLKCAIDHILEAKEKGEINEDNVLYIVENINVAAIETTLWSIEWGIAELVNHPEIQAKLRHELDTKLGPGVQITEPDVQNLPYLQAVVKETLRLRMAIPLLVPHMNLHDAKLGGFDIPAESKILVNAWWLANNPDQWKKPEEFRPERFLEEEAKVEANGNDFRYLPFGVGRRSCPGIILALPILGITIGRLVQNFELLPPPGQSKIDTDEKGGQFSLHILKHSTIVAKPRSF

soybean CYP71A10 = target: T2, soybean CYP71A10 (Glycine max, UniProt O48918); experiment: In vitro herbicide metabolism assay and enzyme kinetics, microsomes of yeast expressing CYP71A10; format: biochemical
T2 construct: microsomes of yeast W(R) overexpressing endogenous P450 reductase
T2 sequence (O48918 1-513): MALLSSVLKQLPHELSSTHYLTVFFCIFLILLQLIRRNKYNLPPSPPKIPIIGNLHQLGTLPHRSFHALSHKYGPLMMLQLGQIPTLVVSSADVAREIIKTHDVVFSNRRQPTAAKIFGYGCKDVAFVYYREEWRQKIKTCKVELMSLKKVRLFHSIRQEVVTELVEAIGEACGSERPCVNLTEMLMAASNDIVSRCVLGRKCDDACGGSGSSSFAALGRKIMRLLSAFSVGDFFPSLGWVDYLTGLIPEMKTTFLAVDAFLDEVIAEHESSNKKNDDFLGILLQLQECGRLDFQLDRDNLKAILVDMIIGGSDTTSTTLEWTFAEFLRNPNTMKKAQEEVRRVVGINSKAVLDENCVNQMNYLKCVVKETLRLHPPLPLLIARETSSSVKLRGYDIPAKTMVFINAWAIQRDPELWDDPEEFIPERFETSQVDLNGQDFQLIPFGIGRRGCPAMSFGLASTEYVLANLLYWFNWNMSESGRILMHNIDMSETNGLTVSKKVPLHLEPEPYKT
T2 sequence (P16603 1-691 partner): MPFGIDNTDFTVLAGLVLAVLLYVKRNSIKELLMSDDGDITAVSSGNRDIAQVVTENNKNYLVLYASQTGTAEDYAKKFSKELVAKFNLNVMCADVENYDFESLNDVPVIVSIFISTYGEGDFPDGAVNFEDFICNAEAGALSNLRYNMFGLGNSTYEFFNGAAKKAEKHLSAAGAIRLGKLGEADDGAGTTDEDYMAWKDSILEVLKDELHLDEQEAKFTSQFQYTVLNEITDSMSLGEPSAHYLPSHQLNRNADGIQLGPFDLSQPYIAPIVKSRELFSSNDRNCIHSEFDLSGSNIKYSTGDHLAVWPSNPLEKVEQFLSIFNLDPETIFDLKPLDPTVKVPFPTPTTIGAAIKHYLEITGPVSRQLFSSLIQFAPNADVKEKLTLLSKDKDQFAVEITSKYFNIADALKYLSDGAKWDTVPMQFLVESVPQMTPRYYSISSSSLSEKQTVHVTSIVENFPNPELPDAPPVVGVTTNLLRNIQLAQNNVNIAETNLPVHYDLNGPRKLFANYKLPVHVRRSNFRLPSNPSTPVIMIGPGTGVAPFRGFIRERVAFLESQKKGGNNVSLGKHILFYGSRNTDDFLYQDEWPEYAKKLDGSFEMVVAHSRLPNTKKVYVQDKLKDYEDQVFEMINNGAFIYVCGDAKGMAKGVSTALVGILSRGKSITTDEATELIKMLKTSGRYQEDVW
Method: Yeast transformation was performed as described by Geitz et al., Nucleic Acids Research 20:1425 (1992). Media composition, culturing conditions, galactose induction, and microsomal preparations were conducted according to Pompon et al., Methods Enzymol. 272:51-64 (1995), using a culture volume of 250 ml. Microsomal protein was quantified spectrophotometrically using the method of Waddell, J. Lab. Clin. Med. 48:311-314 (1956), using bovine albumin as a standard. Dithionite-reduced, carbon monoxide difference spectra was obtained as previously outlined (Estabrook and Werringloer, Methods Ennzmol. 52:212-220 (1978)) using a Shimadzu Recording Spectrophotometer UV-240 (Shimadzu, Kyoto, Japan). P-450 protein concentrations of yeast microsomes were calculated using a millimolar extinction coefficient of 91 (Omura and Sato, J. Biol. Chem., 239:2370-2378 (1964)).
Yeast microsomes enriched for a discrete soybean P-450 isozyme were assayed for their capacity to metabolize the ten herbicides and one insecticide listed in Table 3. The reaction mixtures contained 10,000 DPM (100-200 ng) radiolabeled substrate, 0.75 mM NAPDH, 2.5 mg/ml microsomal protein. Total reaction volumes were adjusted to 150 μl with 50 mM phosphate buffer (pH 7.1). The mixtures were incubated under light for 45 minutes at 27° C., arrested with 50 μl acetone and centriftiged at 14 000×g for 2 minutes. […] Radiolabeled bentazon and imazaquin-containing samples were spotted onto 200 micron Whatman LKC18F silica gel reversed-phase plates. All plates were developed in a benzene/acetone 2:1 (v/v) solvent system with the exception of prosulfaron, developed in toluene/acetone/acetic acid, 75:20:5 (v/v/v), and bentazon and imazaquin, developed in methanol/75 mM sodium acetate 40:60 (v/v). The developed plates were scanned with a Bioscan System 400 imaging scanner (Bioscan, Washington, D.C.), and the production of metabolites was determined based on the chromatographic profiles. For microsomes containing the expressed CYP71A10 enzyme, control experiments were also conducted to measure the NADPH-dependency, and the inhibitory effects of CO. CO treatment of the sample was achieved by gentle bubbling of the gas through the reaction mixture for 2 minutes immediately before the assay was initiated by the addition of NADPH.
Substrate conversion was quantified by a combination of TLC analysis and scintillation spectrometry. The location of the metabolic products on the TLC plates was identified using an imaging scanner, the bands were scraped and analyzed by scintillation spectrometry. The amount of metabolite produced was calculated based on specific activity and scintillation counts. Each assay was repeated at least twice. Km and Vmax values were estimated using nonlinear regression analysis.

## Cc1ccc(NC(=O)N(C)C)cc1Cl [Chlortoluron, chlortoluron]
[1]
  turnover number of the heterologously expressed enzyme: 0.014 /min
Soybean CYP71A10; 45 minutes at 27° C., 0.75 mM NADPH, 2.5 mg/ml microsomal protein
  metabolites formed from the radiolabeled herbicide (TLC): two (a major and a minor) metabolites
Soybean CYP71A10; yeast microsomes containing CYP71A10, standard error in parentheses
  Turnover: 0.7 (0.05) min^-1
